Article PMC4976878 (PLoS ONE, 2016)

Assays:
[1] = target: T1, human mitochondrial MetRS (Homo sapiens, UniProt Q96GW9); experiment: enzyme inhibition, assay not given; format: biochemical
T1 construct: gene MARS2
T1 sequence (Q96GW9 30-593): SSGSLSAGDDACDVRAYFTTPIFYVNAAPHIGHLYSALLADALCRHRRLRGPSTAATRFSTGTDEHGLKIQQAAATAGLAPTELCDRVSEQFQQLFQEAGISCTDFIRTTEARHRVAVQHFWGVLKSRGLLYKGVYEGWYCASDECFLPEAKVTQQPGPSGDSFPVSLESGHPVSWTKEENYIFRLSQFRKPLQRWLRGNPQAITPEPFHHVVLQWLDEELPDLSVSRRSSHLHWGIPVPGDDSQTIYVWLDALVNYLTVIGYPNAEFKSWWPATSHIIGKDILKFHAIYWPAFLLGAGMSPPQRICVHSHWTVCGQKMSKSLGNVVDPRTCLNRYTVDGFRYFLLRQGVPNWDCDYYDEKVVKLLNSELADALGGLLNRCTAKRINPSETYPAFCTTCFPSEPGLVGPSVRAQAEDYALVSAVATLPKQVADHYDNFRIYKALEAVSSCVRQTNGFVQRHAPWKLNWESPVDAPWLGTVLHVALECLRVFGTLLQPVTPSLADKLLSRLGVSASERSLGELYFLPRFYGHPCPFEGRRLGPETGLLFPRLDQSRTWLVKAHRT

[2] = target: T2, BmMetRS (Brucella melitensis methionyl-tRNA-synthetase) (Brucella abortus, UniProt Q2YQ76); experiment: biochemical
T2 construct: gene metG
T2 sequence (Q2YQ76 1-515 limits assumed): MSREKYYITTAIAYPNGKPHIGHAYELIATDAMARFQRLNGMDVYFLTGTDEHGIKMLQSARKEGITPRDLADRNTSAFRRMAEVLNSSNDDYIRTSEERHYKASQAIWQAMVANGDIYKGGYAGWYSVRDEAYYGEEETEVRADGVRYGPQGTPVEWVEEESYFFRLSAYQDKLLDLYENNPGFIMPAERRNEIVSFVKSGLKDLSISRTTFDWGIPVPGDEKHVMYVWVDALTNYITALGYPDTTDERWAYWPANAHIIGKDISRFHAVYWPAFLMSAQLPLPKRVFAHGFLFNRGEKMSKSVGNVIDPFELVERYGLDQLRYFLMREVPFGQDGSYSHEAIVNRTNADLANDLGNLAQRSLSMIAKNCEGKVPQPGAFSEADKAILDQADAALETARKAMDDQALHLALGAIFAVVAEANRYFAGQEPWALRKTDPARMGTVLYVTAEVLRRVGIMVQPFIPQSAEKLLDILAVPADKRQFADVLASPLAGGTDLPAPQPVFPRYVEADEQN

With `O=c1cc(NCCCNCc2cc(Cl)cc(Cl)c2)[nH]c2ccccc12` [compound 1312, 1312] the IC50 [1] was “the IC50 values from human mitochondrial MetRS is very similar to that of BmMetRS” and the IC50 [2] was 0.006 µM.

For `COc1cc(Cl)cc(CNCCCNC(=O)Nc2ccccc2)c1` [compound 1415, 1415], the IC50 [1] was “The characteristics of each inhibitor experimentally measured against human mitochondria MetRS” and the IC50 [2] was 1.66 µM.

`O=C(NCCCNCc1cc(Cl)cc(Cl)c1)Nc1ccsc1` [compound 1433, 1433] was tested, and the IC50 [1] was “The characteristics of each inhibitor experimentally measured against human mitochondria MetRS” and the IC50 [2] was 0.272 µM.
